The subject of assay [1] is pyramidal cells of hippocampus. Put plainly: HE staining, histomorphology of rats with D-galactose induced brain aging. The conditions noted are these: compared with the model group. In kind it is in vivo. As for the experimental part: The experiment is performed as per Section 2, Chapter 7 of Pathological Tissue Sectioning and Staining Technology (Gong Zhi-jin et al.).
The pyramidal cells of hippocampus of rats in the blank group are tight in alignment, obvious with the upper and lower cell lines and rich in number of cells; the nuclear membrane are clear with distinct nucleolus. The pyramidal cells of hippocampus of rats in the model group is loosening in the alignment, oblique in the cellular structure, swelling in the cell body and irregular in the upper and lower cell lines; Some cells have nucleus pyknosis and deep staining.

The subject of a further assay is Ach in whole brain. Put plainly: Content of ACh in whole brain, rats with Aβ toxicity injury. The conditions noted are these: Aβ1-40 rats, four weeks after drug administered, dosage 0.08 mg/kg.
Assay [2] deals with hippocampus nerve cells. Put plainly: Ultrastructure of hippocampus nerve cells, rats with Aβ toxicity impairment. In kind it is in vivo. The conditions noted are these: compared with the model group. An excerpt:
There are margination and pyknosis of chromosome of nucleus of hippocampus nerve cells in rats of the model group; the volume of cell is lessened and the cytoplasm is concentrated; the mitochondria are mildly swelling in a few cells; the cell organelle such as the rough endoplasmic reticulum and ribosome are generally normal; and the presynaptic and postsynaptic membranes are not clear. The synaptic space disappears.

A further assay relates to SOD. Description: Activity of SOD of whole brain, rats with natural aging cognition impairment. The conditions noted are these: 12 weeks after drug administered, dosage 0.08 mg/kg.
In a further assay the test system is Na+-K+-ATP enzyme. The following applies: whole brain, Aβ1-40 rats; four weeks after drug administered; dosage 0.08 mg/kg.
Assay [3] deals with hippocampus nerve cells. Description: Ultrastructure of hippocampus nerve cells, rats with natural aging cognition impairment. The following applies: contrary to the model group.
Assay [4] has as its system monoamine neurotransmitters and its metabolites in whole brain. Description: Monoamine neurotransmitters and metabolites in whole brain, rats with Aβ toxicity injury. The conditions noted are these: dosage 0.08 mg/kg. In kind it is in vivo. An excerpt: (§1) Acta Pharmacol Sin. 2004; 25: 1118˜23.
Another assay concerns ACh in brain. Description: Content of ACh in brain of 2VO rats. The conditions noted are these: 3 months after 2VO, two months after drug administered, dosage 0.06 mg/kg.
Assay [5] relates to rats impaired by β-amyloid precursor protein (Aβ) toxicity. Description: Morris water maze, rats impaired by Aβ toxicity. The following applies: Morris water maze swimming; Aβ 1-40 rats, four weeks; dosage 0.08 mg/kg. In kind it is in vivo. An excerpt:
(§2) The search strategy is mostly marginal or random. […]

Assay [6] relates to rats impaired by toxicity. Description: Morris water maze, rats impaired by Aβ toxicity. In kind it is in vivo. The following applies: Morris water maze swimming; Aβ 1-40 rats, four weeks; dosage 0.08 mg/kg.
From the text: as §2

For assay [7], the system named is 5-HT and 5-HIAA in the whole brain. Put plainly: Monoamine neurotransmitters in whole brain of APP transgenic mice. In kind it is in vivo. The conditions noted are these: positive Huperzine A group.
From the text: as §1

For assay [8], the system named is mice with scopolamine hydrobromide induced memory impairment. Description: Step down experiment, mice with scopolamine hydrobromide induced memory impairment. The following applies: scopolamine model mice, dosage 0.08 mg/kg.
Protocol: 1.1.2 The experiment is performed as per Nervous System Drugs Section 5 in Methodology of Pharmaceutical Experiment (XU Shu-yun, et al.).
Assay [9] concerns mice with ethanol induced memory retrieval impairment. Description: Step through experiment, mice with ethanol induced memory retrieval impairment. The following applies: ethanol model mice, dosage 0.08 mg/kg. In kind it is in vivo.
A further assay has as its system 2VO rats. Description: Morris water maze, VD rats with bilateral common carotid artery permanent ligation (2VO). The conditions noted are these: dosage 0.06 mg/kg.
The subject of another assay is MDA. Put plainly: Content of MDA of whole brain, rats with natural aging cognition impairment. The following applies: 12 weeks after drug administered, dosage 0.08 mg/kg.
The mark [10] stands for this setting: 15 days after drug administered.

Protocol for MDA: (§3) The detection is performed as per the instruction of the reagent kits.
Protocol for Na+-K+-ATP enzyme: as §3
Protocol for SOD: as §3

For `C/C=C1\[C@H]2C=C(C)C[C@]1(N)c1ccc(=O)[nH]c1C2` [Huperzine A], the “histomorphology of pyramidal cells of hippocampus (HE staining)” value in assay [1] is on record as “in order of alignment with clearer contour of cells”. Moreover, the “Content of ACh” value with Ach in whole brain came to 180.0 ± 23.5 µg/L. Also, the “ultrastructure of hippocampus nerve cells” value in the assay with hippocampus nerve cells [2] was “better morphology and structure, clearer cell membrane and pre- and post-synaptic membranes”. In the assay with SOD, the “Activity of SOD” value was 43.68 ± 2.55 NU/mgProt. The “Activity of Na+—K+-ATP” value with Na+-K+-ATP enzyme is on record as 0.207 ± 0.025 μmoLPi/mgProt/h. In addition, the “ultrastructure of hippocampus nerve cells” value in the assay with hippocampus nerve cells [3] was “better morphology and structure and clearer cell membrane”. In assay [4], the 5-HIAA was found to be 27.3 ± 3.1 µg/L, the 5-HT worked out at 41.7 ± 5.9 µg/L, the DA came out at 136.2 ± 8.5 µg/L and the DOPAC was 13.4 ± 1.3 µg/L. Also, in [4], the HVA was found to be 15.4 ± 9.4 µg/L and the NE stood at 75.9 ± 11.3 µg/L. The “Content of ACh” value with ACh in brain came to 221.4 ± 41.9 µg/L. For the same compound, the Length of time in assay [5] came to 16.3 ± 10.6. The Length of route in assay [6] came out at 436.7 ± 284.4. Besides, the “5-HT and 5-HIAA in the whole brain” value in [7] was “decrease to different degrees”. For the same compound, the Latency in assay [8] (setting [10]) was determined as 271.8 ± 54.6 s. In addition, in [8] (in 5 minutes, 15 days), the “Number of Error” value was 0.6 ± 0.9. Also, the Latency in assay [9] (setting [10]) came out at 214.1 ± 127.8 s. Moreover, the “Number of Mistakes” value in [9] (in 5 minutes, 15 days) is 1.0 ± 1.3. Besides, the “Time of passing through maze, 1 month after ligation” value with 2VO rats (1 month after ligation) is reported as 61.3 ± 25.2 s. Besides, the “Time of passing through maze, 2 months after ligation” value in the assay with 2VO rats (2 months after ligation (one month after drug administered)) stood at 29.1 ± 18.5 s. Besides, in the assay on 2VO rats (3 months after ligation (two months after drug administered)), the “Time of passing through maze, 3 months after ligation” value is recorded as 10.8 ± 5.6 s. The “Content of MDA” value in the assay with MDA worked out at 3.50 ± 0.43 nmol/mgProt.

The record behind these values is patent publication US8158169B2, “Chinese medicine composition and preparation method and use thereof” (priority 2006, dated 2012).
